# Laboratory results: patent US20230265167A1, “COMPOSITIONS HAVING NEUROREGENERATIVE APPLICATIONS” (GRIFOLS WORLDWIDE OPERATIONS LIMITED, priority 2020, published 2023)
# “Also recorded” adds a separate entry of the source. Where a name gives a salt, the structure may show the parent alone.
# Tests used:
# HIF-1α = conditions: cited from earlier work
# SH-SY5Y cells = test: Neurite outgrowth (differentiation) in SH-SY5Y cells, Tubulin Tracker imaging; format: cell-based, human; conditions: for neurite outgrowth or differentiation: FIG. 5
# Description: Transferrin is utilized in cell culture and in-vivo to deliver iron as a nutrient to cells. This is typically accomplished through the actions of holo-transferrin (HoloTf) binding to, and endocytosis by, its cognate receptor CD71, the transferrin receptor 1 (TfR1). Transferrin is typically believed to provide cells with iron as a means to promote and sustain metabolic activity. […] Induction of neuronal differentiation was assessed by morphological parameters of neurite formation (a key element typically used as a marker of neuronal differentiation, neuronal health, and function) according to the procedures of Agholme, 2010. J. of Alzheimer's Disease. Vol. 20:1p 069-108; and Dyberg et al., 2017. PNAS Vol 114 (32), E6603-E6612.
# Undifferentiated SH-SY5Y cells were seeded into 96 well clear bottom plates in media containing 0.1% FBS. A serum-free base media was utilized as recommended by the supplier for SH-SY5Y cells (Sigma, Cat #94030304-1VL). Twenty-four hours after seeding cells, a 3× stock solution of ApoTf, final concentrations indicated on the x-axis, in serum free base media was added to the cells. ApoTf was obtained and purified from pooled human plasma and dosed at a final concentration of 0.2 mg/mL.
# Cells were allowed to differentiate for 6 days. Neurite growth was assessed by imaging and image analysis. At the time of analysis, a 10× solution of Tubulin Tracker (Molecular Probes, T34075) and Hoechst 33342 (Molecular Probes #H3570) nuclear stain was prepared.
# Briefly, Tubulin Tracker dissolved in DMSO was diluted 1:1 with Pluronic F-127 and further diluted into HBSS to generate a 10× solution. Hoechst 33342 was added to the HBSS-Tubulin Tracker solution at 10 μg/mL to generate a 10× nuclear stain. The 10× staining solution (10 μL) was added directly to treated assay wells and incubated at 37° C. for 30 minutes. Following incubation, 110 μL of 0.4% Trypan Blue was added directly to assay wells and imaged on a Molecular Devices Nano imaging instrument. Nine images/well were acquired in the blue (Nuclei) and green (Tubulin) fluorescent channels for each image.
# After obtaining images, the MetaExpress Neurite Outgrowth analysis module (Molecular Devices) was used to identify cells, cell bodies, and quantify neurites. The total number of neurite branches were divided by the total number of cells imaged to account for different numbers of cells in each test well. The Outgrowth Fold Change was determined by setting the untreated control cells to a value of 1 with all other treatments shown relative to untreated control.
# Undifferentiated SH-SY5Y cells were seeded and treated as described in Example 1. Neurite growth was assessed by imaging and image analysis. At the time of analysis, a 10× solution of Tubulin Tracker (Molecular Probes, T34075) and Hoechst 33342 (Molecular Probes #H3570) nuclear stain was prepared. Briefly, Tubulin Tracker dissolved in DMSO was diluted 1:1 with Pluronic F-127 and further diluted into HBSS to generate a 10× solution. Hoechst 33342 was added to the HBSS-Tubulin Tracker solution at 10 μg/mL to generate at 10× nuclear stain. The 10× staining solution (10 μL) was added directly to treated assay wells and incubated at 37° C. for 30 minutes. Following incubation, 110 μL of 0.4% Trypan Blue was added directly to assay wells and imaged on a Molecular Devices Nano imaging instrument. Nine images/well were acquired in the blue (Nuclei) and green (Tubulin) fluorescent channels for each image. After obtaining images, the MetaExpress Neurite Outgrowth analysis module (Molecular Devices) was used to identify cell bodies and quantify neurites. The total number of neurite branches were divided by the total number of cells imaged to account for different numbers of cells. The Outgrowth Fold Change was determined by setting the untreated control to a value of 1 with all other treatments shown relative to untreated control. ApoTf was obtained and purified from pooled human plasma and dosed at a final concentration of 0.2 mg/mL. […]
# [1] = Iron saturation by ICP-AES; format: physicochemical
# Description: The skilled person will appreciate that transferrin iron saturation levels can be readily determined without undue burden by quantifying the total iron levels in a sample having a known transferrin concentration. The total iron levels in sample can be measured by any one of a number of methods know by those of skill in the art. Suitable examples include: • Colorimetric assays—Iron is quantitated by measuring the intensity of the violet complex formed in the reaction between ferrozine and Fe^2+ in acetate buffer at 562 nm. Thiourea or other chemicals can be added to complex contaminant metals such Cu^2+, which can also bind with ferrozine and yield falsely elevated iron values. See Ceriotti et al., Improved direct specific determination of serum iron and total iron-binding capacity Clin Chem. 1980, 26(2), 327-31, the contents of which are incorporated herein by reference. • Inductively Coupled Plasma Atomic Emission Spectroscopy (ICP-AES)—is an emission spectroscopy technique that quantifies the mass percentage of metals in a sample. ICP-AES is based on the excitation of metal atoms/ions in the sample using a plasma (an ionized gas consisting of positive ions and free electrons) and analyzing the emission wavelength of the electromagnetic radiation, which is typical of that particular metal. Even though the technique is a standard analytical technique within common general knowledge of the skilled person, further information on ICP-AES can be found in Manley et al., Simultaneous Cu-, Fe-, and Zn-specific detection of metalloproteins contained in rabbit plasma by size-exclusion chromatography-inductively coupled plasma atomic emission spectroscopy. J Biol Inorg Chem. 2009, 14, 61-74, the contents of which are incorporated herein by reference.
# The preferred method of determining the iron content of a sample for the purposes of the therapeutic method of the present invention is ICP-AES. The iron saturation of transferrin is then calculated based on the transferrin protein concentration, total iron content of the sample, and the fact that wild type transferrin has two iron-binding sites. Wild type human transferrin (molecular weight 79,750) can bind two iron atoms such that a sample containing 1 g of transferrin would be 100% saturated by 1.4 mg of iron.
# Protein purity was determined by SDS-PAGE. Iron saturation levels were determined using ICP-AES in accordance with the procedures outlined in Manley et al., J Biol Inorg Chem (2009) 14:61-74, the contents of which are incorporated herein by reference.
molecule,measurement,setting,value
"HoloTransferrin: the iron-saturated form of transferrin, purified from pooled human plasma",HIF-1α production,HIF-1α; reported in US2016008437,can induce HIF-1α production
same,neurogenesis / differentiation of SH-SY5Y,"SH-SY5Y cells; FIG. 4, proteins at 0.2 mg/mL, listed as HoloTf",unable to induce differentiation; also recorded: lack of neurogenesis
same,Iron Saturation (%),[1],100%
"CC(=O)N(O)CCCCCNC(=O)CCC(=O)N(O)CCCCCNC(=O)CCC(=O)N(O)CCCCCN [DFO, Deferoxamine mesylate, reference compound]",neurite outgrowth / differentiation versus concentration,"SH-SY5Y cells; FIG. 3A, DFO versus ApoTf",little neurite formation beyond that concentration
"recombinant ApoTf: recombinant wild-type human transferrin, SEQ ID NO: 1, expressed in 293-6E cells",neurogenesis (neurite outgrowth) of SH-SY5Y,"SH-SY5Y cells; FIG. 3B, proteins at 0.2 mg/mL",did induce neurogenesis
"ApoTransferrin B: ApoTf preparation, Grifols - prepared in house",Iron Saturation (%),[1],0.59%
"ApoTransferrin C: ApoTf preparation, Grifols - prepared in house",Iron Saturation (%),[1],0.24%
"ApoTransferrin A: ApoTf preparation, Grifols - prepared in house",Iron Saturation (%),[1],0.27%
"O=C(O)CNC(=O)c1c(O)c2ccccc2n(Cc2ccccc2)c1=O [IOX2, N-[[1,2-Dihydro-4-hydroxy-2-oxo-1-(phenylmethyl)-3-quinolinyl]carbonyl]glycine, reference compound]",concentration inducing up-regulation of HIF-1α,HIF-1α; undifferentiated SH-SY5Y,1 µM
same,neurite outgrowth or differentiation,SH-SY5Y cells,no neurite outgrowth or differentiation was observed
same,neurite outgrowth or differentiation,SH-SY5Y cells; 4 μM,no effect was observable
"C[C@@H](N)[C@H]1CC[C@H](C(=O)Nc2ccncc2)CC1.Cl.Cl [Y-27632, trans-4-[(1R)-1-Aminoethyl]-N-4-pyridinylcyclohexanecarboxamide dihydrochloride, reference compound]","neurogenic effect, alone","SH-SY5Y cells; FIG. 8, 50 μM",strongly neurogenic
